{"source": "paper PMC9861858", "about": "“Stereoselective Synthesis and Antiproliferative Activities of Tetrafunctional Diterpene Steviol Derivatives” (International Journal of Molecular Sciences, 2023)", "key": {"[1]": {"test_system": "human cancer cell lines (HeLa, SiHa, A2780, MCF-7 and MDA-MB-231)", "assay": "MTT antiproliferative assay, whole cancer cell panel", "type": "cell-based", "conditions": "10 and 30 μM", "procedure": "The in vitro antiproliferative activities of the synthesised aminotriols 5–18 against a panel of different human cancer cell lines of gynecological origin, including cervical (SiHA and HeLa), breast (MCF7 and MDA-MB-231), ovary (A2780) cancers and NIH/3T3 healthy fibroblasts, were assayed by the MTT method. Cisplatin, a clinically applied anticancer agent was used as a reference compound, and the results are summarised in Figure 3 and Table S1 in the Supplementary Materials.\nThe growth-inhibitory effects of the presented terpenes were determined by a standard MTT [3-(4,5-dimethylthiazol2-yl)-2,5-diphenyltetrazolium bromide] assay against […] human cancer cell lines (cervical cancer HeLa and SiHa cell lines, breast cancer MCF-7 and MDA-MB-231 and ovarian cancer A2780). Murine embryonal fibroblast cells (NIH/3T3) were used to determine selectivity. All cell lines were purchased from the European Collection of Cell Cultures (Salisbury, UK). The cells were cultivated in Eagle’s minimal essential medium supplemented with 10% fetal bovine serum, 1% non-essential amino acids, and 1% Antibiotic-Antimycotic complex (penicillin, streptomycin, amphotericin B) at 37 °C in a humidified atmosphere containing 5% CO2. All media and supplements were purchased from Lonza Group Ltd. (Basel, Switzerland). Cancer cells were seeded into 96-well plates (5000 cells/well) after an overnight incubation, and the test compounds were added at two different concentrations (10 μM and 30 μM) and incubated for another 72 h under cell-culturing conditions. Finally, 20 μL of a 5 mg/mL MTT solution was added to each well, and the contents were incubated for a further 4 h. The medium was removed, and the precipitated formazan crystals were dissolved in DMSO by shaking at 37 °C for 60 min. The absorbance was measured at 545 nm by using a microplate reader (SPECTROStar Nano, BMG Labtech, Offenburg, Germany). Clinically utilised anticancer agent cisplatin (Ebewe GmbH, Unterach, Austria) was included as a reference molecule. Calculations were performed using the GraphPad Prism 9 software (GraphPad Software Inc., San Diego, CA, USA)."}, "MDA-MB-231 cells": {"test_system": "MDA-MB-231 cells", "assay": "MTT antiproliferative assay, MDA-MB-231", "type": "cell-based, human", "conditions": "for Antiproliferative effect / selectivity on MDA-MB-231, in words: 10 and 30 μM; for inhibition at 10 µM / inhibition at 30 µM: Homo sapiens, 72 h, values <20% considered negligible, read-out: Growth inhibition (%) ± SEM, MDA-MB-231; for inhibition at 10 µM: MDA-MB-231, 10 μM; for inhibition at 30 µM: MDA-MB-231, 30 μM", "how_it_was_run": "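Absorbance at 545 nm of DMSO-solubilised formazan, formed during a 4 h MTT incubation, gave growth inhibition after 72 h compound treatment at two concentrations, 10 and 30 μM. Seeding was 5000 cells per well with overnight attachment; medium was EMEM plus 10% fetal bovine serum.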"}}, "note": "Entries after “also recorded” stand apart in the source; their conditions may differ."}
{"molecule": "COC(=O)[C@]1(C)CCC[C@@]2(C)C3CC[C@]4(O)C[C@@]3(CCC21)[C@@H](O)[C@]4(O)CN(C)Cc1ccccc1", "note": "(stereo partly drawn) [Compound 6, (4R,6aR,7R,8R,9S,11bS)-Methyl 8-((Benzyl(methyl)amino)methyl)-7,8,9-trihydroxy-4,11b-dimethyltetradecahydro-6a,9-methanocyclohepta[a]naphthalene-4-carboxylate]", "values": [{"measurement": "Antiproliferative activity on the cancer cell panel, in words", "setting": "[1]", "value": "lower bioactivity; also recorded: significant activity in higher concentrations only"}, {"measurement": "Antiproliferative effect / selectivity on MDA-MB-231, in words", "setting": "MDA-MB-231 cells", "value": "slight selectivity"}, {"measurement": "inhibition at 10 µM", "setting": "MDA-MB-231 cells", "value": "< 20", "unit": "%"}, {"measurement": "inhibition at 30 µM", "setting": "MDA-MB-231 cells", "value": "82.56 ± 0.69", "unit": "%"}]}
{"molecule": "COC(=O)[C@]1(C)CCC[C@@]2(C)C3CC[C@]4(O)C[C@@]3(CCC21)[C@@H](O)[C@]4(O)CNCc1ccc(F)cc1", "note": "(stereo partly drawn) [Compound 9, (4R,6aR,7R,8R,9S,11bS)-Methyl 8-(((4-Fluorobenzyl)amino)methyl)-7,8,9-trihydroxy-4,11b-dimethyltetradecahydro-6a,9-methanocyclohepta[a]naphthalene-4-carboxylate]", "values": [{"measurement": "Antiproliferative effect / selectivity on MDA-MB-231, in words", "setting": "MDA-MB-231 cells", "value": "decent activity; also recorded: smaller but also selective antiproliferative effect"}, {"measurement": "inhibition at 10 µM", "setting": "MDA-MB-231 cells", "value": "83 ± 1.71", "unit": "%"}, {"measurement": "inhibition at 30 µM", "setting": "MDA-MB-231 cells", "value": "93.63 ± 0.36", "unit": "%"}]}
{"molecule": "COC(=O)[C@]1(C)CCC[C@@]2(C)C3CC[C@]4(O)C[C@@]3(CCC21)[C@@H](O)[C@]4(O)CNCc1ccccc1", "note": "(stereo partly drawn) [Compound 5, (4R,6aR,7R,8R,9S,11bS)-Methyl 8-((Benzylamino)methyl)-7,8,9-trihydroxy-4,11b-dimethyltetradecahydro-6a,9-methanocyclohepta[a]naphthalene-4-carboxylate]", "values": [{"measurement": "Antiproliferative activity on the cancer cell panel, in words", "setting": "[1]", "value": "significant activity in higher concentrations only"}, {"measurement": "inhibition at 10 µM", "setting": "MDA-MB-231 cells", "value": "34.6 ± 2.98", "unit": "%"}, {"measurement": "inhibition at 30 µM", "setting": "MDA-MB-231 cells", "value": "95.8 ± 0.63", "unit": "%"}]}
{"molecule": "CC[C@@H](NC[C@@]1(O)[C@H](O)[C@@]23CCC4[C@@](C)(CCC[C@@]4(C)C(=O)OC)C2CC[C@]1(O)C3)c1ccccc1", "note": "(stereo partly drawn) [Compound 15, (4R,6aR,7R,8R,9S,11bS)-Methyl 7,8,9-Trihydroxy-4,11b-dimethyl-8-((((R)-1-phenylpropyl)amino)methyl)tetradecahydro-6a,9-methanocyclohepta[a]naphthalene-4-carboxylate]", "values": [{"measurement": "Antiproliferative effect / selectivity on MDA-MB-231, in words", "setting": "MDA-MB-231 cells", "value": "decent activity; also recorded: smaller but also selective antiproliferative effect"}, {"measurement": "inhibition at 10 µM", "setting": "MDA-MB-231 cells", "value": "68.3 ± 2.86", "unit": "%"}, {"measurement": "inhibition at 30 µM", "setting": "MDA-MB-231 cells", "value": "95.63 ± 0.45", "unit": "%"}]}
{"molecule": "CC[C@H](NC[C@@]1(O)[C@H](O)[C@@]23CCC4[C@@](C)(CCC[C@@]4(C)C(=O)OC)C2CC[C@]1(O)C3)c1ccccc1", "note": "(stereo partly drawn) [Compound 16, (4R,6aR,7R,8R,9S,11bS)-Methyl 7,8,9-Trihydroxy-4,11b-dimethyl-8-((((S)-1-phenylpropyl)amino)methyl)tetradecahydro-6a,9-methanocyclohepta[a]naphthalene-4-carboxylate]", "values": [{"measurement": "inhibition at 10 µM", "setting": "MDA-MB-231 cells", "value": "39.3 ± 1.99", "unit": "%"}, {"measurement": "inhibition at 30 µM", "setting": "MDA-MB-231 cells", "value": "96.65 ± 0.37", "unit": "%"}]}
